In patent US7566737B2 (Genfit, priority 2002, dated 2009):

What was measured:
[1] = system: Human THP-1 monocytes differentiated in macrophages; assay: Anti-inflammatory properties: cytokine secretion by LPS-stimulated macrophages; format: cell-based; conditions: pre-treated 24 hours, LPS 6 hours, vs non-treated cells
Protocol: TNF-α (tumor necrosis factor alpha) and IL-6 (interleukin-6) are two important markers of the inflammatory response to stress. The anti-inflammatory property of the compound 29 was evaluated as follows:
Human THP-1 monocytes were differentiated in macrophages by a 72 h incubation with 30 ng/ml of PMA (Phorbol Myristate Acetate). Differentiated macrophages were then treated with the inventive compound 29 at different concentrations during 24 h in culture medium without serum. Stimulation with LPS 1 μg/ml was finally performed during 6 hours (LPS bacterial endotoxin (Escherichia coli 0111 :B4) (Sigma, France) was reconstituted in distilled water).
TNF-α and IL-6 secretion were quantified in the culture medium of LPS-stimulated cells with TNF-α and IL6 ELISA kits (Immunotech, France).

[2] = system: Human normal primary fibroblasts; assay: Antioxidant properties on cell cultures (carboxy-H2DCFDA fluorescence, AAPH stress), fibroblasts; format: cell-based; conditions: 25 μM for 24 h, AAPH 750 μM
Method in brief: (§1)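 Cells were pretreated 24 h with compound at 25 μM, loaded 30 min at 37 °C with 25 μM carboxy-H2DCFDA, then stressed 30 min with 750 μM AAPH in phenol-red- and serum-free medium. ROS read as fluorescence ([…]); activity expressed as reduction in fluorescence signal.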

[3] = system: C57BLKS-m Lepr^db transgenic mice; assay: Antidiabetic effect on insulin and glucose; format: in vivo, mouse; conditions: 0.1 to 100 mg/Kg/day for 28 days
Protocol: Genetically modified C57BLKS-m Lepr^db mice were used to asses antidiabetic effect of the inventive compounds. Mice were randomized according to their plasma lipid, glucose and insulin contents. Treatments were administered once daily by gavage (10 ml/kg) for the duration of the treatment. For oral administrations, the drugs were suspended in CMC 1% or CMC 1%+Tween 80 0.1%. The plasma glucose was measured using a kit reagent from Biomerieux (France). The plasma insulin was measured using a solid phase two-site enzyme immunoassay from Crystal Chem Inc. (USA). The results are exemplified in FIGS. 5-1 to 5-4 which illustrate the activity of inventive compounds 29 and 62 on glucose and insulin.

HaCat cells = assay: Antioxidant properties on cell cultures (carboxy-H2DCFDA fluorescence, AAPH stress), keratinocytes; format: cell-based, human; conditions: 25 μM for 24 h, AAPH 750 μM
Method in brief: as §1

PPARδ = target: T1, PPARδ (Mus musculus, UniProt P35396); assay: In vivo evaluation of PPARδ properties (target gene expression, RT-PCR); conditions: PPARα knock-out mouse; 150 mg/kg/day for 3 days
T1 construct: from tissue; host or cells: heart and skeletal muscle (quadriceps) of PPARα knock-out mice
T1 sequence (P35396 1-440): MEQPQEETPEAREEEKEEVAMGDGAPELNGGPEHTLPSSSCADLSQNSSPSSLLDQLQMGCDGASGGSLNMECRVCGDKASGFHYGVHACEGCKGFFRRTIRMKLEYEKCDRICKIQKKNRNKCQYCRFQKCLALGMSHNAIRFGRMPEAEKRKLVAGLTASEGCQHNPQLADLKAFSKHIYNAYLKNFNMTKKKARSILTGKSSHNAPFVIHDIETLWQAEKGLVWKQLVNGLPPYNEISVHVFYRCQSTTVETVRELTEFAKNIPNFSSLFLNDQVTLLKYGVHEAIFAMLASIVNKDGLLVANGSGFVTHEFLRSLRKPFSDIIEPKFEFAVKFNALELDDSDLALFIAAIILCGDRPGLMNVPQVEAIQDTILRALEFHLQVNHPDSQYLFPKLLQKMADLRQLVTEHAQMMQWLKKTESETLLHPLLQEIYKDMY
Protocol: The PPARα knock-out mouse model was used to characterize in vivo PPARδ activation. Animals were treated for 3 days at the dose of 150 mg/kg/day. Total RNA was isolated from heart and skeletal muscle (quadriceps). Messenger RNAs were quantified by quantitative RT-PCR and expression levels were normalized using 18S gene as reference.
The […] knock-out mouse model was used to characterize in vivo PPARδ activation. Animals were treated for 3 days at the dose of 150 mg/kg/day. Total RNA was isolated from heart and skeletal muscle (quadriceps). Messenger RNAs were quantified by quantitative RT-PCR: total RNA was extracted from fragments of skeletal muscle or heart, using the RNeasy® Fibrous Tissue kit (Qiagen), according to the manufacturer's instructions. Reverse transcription was performed on 1 μg of total RNA (quantified using the Ribogreen RNA quantification kit (Molecular Probes)) by action of 1 μl of MMLV-RT enzyme (Sigma) during 1 hour at 37° C. in a total volume of 20 μl. The reaction conditions were 1× buffer (Sigma), 1.5 mM DTT, 0.18 mM dNTPs (Promega), 200 ng pdN6 (Amersham), 30 U RNase inhibitor (Sigma). Quantitative PCR was then carried out using the MyiQ Single-Color Real-Time PCR Detection System (Biorad). Briefly PCR reactions were performed in 96 well plates on 5 μl of diluted reverse transcription mix using the iQ SYBR Green Supermix kit. The reaction conditions were: 25 μl of volume reaction, 3 mM of MgCl2, and 0.5 μl of each reverse and forward primer solutions (10 pMol), Tm of 55° C. The primers pairs are specific for each target genes. […]
The quantity of fluorescence emitted is directly proportional to the quantity of complementary DNA present at the start of the reaction and amplified during the PCR. The relative levels of expression were determined using the standard curve for each transcript. […] The induction factor, i.e. the ratio between the relative signal induced by the compound according to the invention and the average of the values relating to the control group, was then calculated for each sample. […]

SMILES	IL-6 secretion ([1]; 0.1, 1 and 10 μM)	TNF-α secretion ([1]; 1 and 10 μM)	antioxidant properties on cell cultures (in words) [2]	plasma glucose level [3]	plasma insulin level [3]	antioxidant properties on cell cultures (in words) (HaCat cells)	PDK4 expression in the heart (PPARδ)	UCP2 expression in the skeletal muscle (PPARδ)	UCP3 expression in the heart (PPARδ)
CSc1ccc(C(=O)/C=C/c2cc(C)c(OC(C)(C)C(=O)O)c(C)c2)cc1 [Compound 29, 1-[4-methylthiophenyl]-3-[3,5-dimethyl-4-carboxydimethylmethyloxyphenyl]prop-2-en-1-one]	decrease	decrease	antioxidant properties	decrease	decrease	antioxidant properties			
Cc1cc(/C=C/C(=O)c2ccc(Br)cc2)cc(C)c1OC(C)(C)C(=O)O [Compound 41, 1-[4-bromophenyl]-3-[3,5-dimethyl-4-carboxydimethylmethyloxyphenyl]prop-2-en-1-one]			antioxidant properties			antioxidant properties	Induction	Induction	Induction
